According to US20060110439A1, “Dermal delivery of n-methyl-glucamine and n-methyl-glucamine compounds” (Dynamis Therapeutics, Inc., priority 2004, published 2006):

What was measured:
3DG = settings: in vivo; cited from earlier work
[1] = system: 3DG-dependent crosslinking of collagen type I; test: Inhibition of 3DG collagen crosslinking in vitro (CnBr digest, SDS-PAGE); assay type: biochemical; settings: calf skin collagen type 1, 5 mM 3DG plus 10 mM arginine, 24 hr
Description: The direct inactivation of 3DG is a method of reducing 3DG levels. Calf skin collagen type 1 (1.3 mg) was incubated with no addition, with 5 mM 3DG, or with 5 mM 3DG plus 10 mM of arginine for 24 hr. Each sample was digested with cyanogen bromide (CnBr) to create peptide fragments that are visualized by sodium-dodecyl sulfate-polyacrylamide gel electrophoresis (SDS-PAGE) (FIG. 4). Lane 2 is collagen alone; lane 3 is collagen plus 5 mM 3DG; and lane 4 is collagen plus 5 mM 3DG plus 10 mM arginine. Lanes 5, 6, and 7 are the same, but with twice as much sample applied.
Crosslinking was assessed by visually determining the amount of high molecular weight protein remaining near the origin of the resolving gel, as compared to the amount that migrates into the gel matrix. The more crosslinking that exists, the more material there is near the origin of the gel. The lanes containing collagen with 3DG (#3, #6) have more material residing at the origin than those containing collagen alone (#2, #5).

Compound	urinary or plasma 3DG (3DG)	3DG crosslinking of collagen (high molecular weight protein near gel origin, visual) [1]
N[C@@H](CCCCNC[C@H](O)[C@@H](O)[C@@H](O)[C@H](O)CO)C(=O)O [galactitollysine]	reduced	
N=C(N)NCCC[C@H](N)C(=O)O [arginine]		able to inactivate 3DG and prevent it from crosslinking collagen
N[C@@H](CCCCNC[C@@H](O)[C@@H](O)[C@H](O)[C@H](O)CO)C(=O)O [mannitollysine]	reduced	
N[C@@H](CCCCNC[C@H](O)[C@@H](O)[C@H](O)[C@H](O)CO)C(=O)O [sorbitollysine]	reduced	
CNC[C@H](O)[C@@H](O)[C@H](O)[C@H](O)CO [meglumine, N-methyl glucamine]	reduced	
